In patent publication US20100048575A1, “NOVEL TETRACYCLIC INHIBITORS OF CYSTEINE PROTEASES, THE PHARMACEUTICAL COMPOSITIONS THEREOF AND THEIR THERAPEUTIC APPLICATIONS” (priority 2006, published 2010):

Tests used:
[1] = target: T1, USP8 (Homo sapiens, UniProt P40818); test: USP8 activity assay (Ub-AMC); type: biochemical; conditions: 400 nM Ub-AMC, 630 pM enzyme, pH8.8, 30 min pre-incubation, 60 min at 37° C., sigmoidal fit; read-out: USP8 (inhibition of cysteine protease activity)
T1 construct: His tag (from vector pFastBac-HT) (N); made in house; host or cells: insect cells (Sf9 or High Five), baculovirus
T1 sequence (P40818 1-1118): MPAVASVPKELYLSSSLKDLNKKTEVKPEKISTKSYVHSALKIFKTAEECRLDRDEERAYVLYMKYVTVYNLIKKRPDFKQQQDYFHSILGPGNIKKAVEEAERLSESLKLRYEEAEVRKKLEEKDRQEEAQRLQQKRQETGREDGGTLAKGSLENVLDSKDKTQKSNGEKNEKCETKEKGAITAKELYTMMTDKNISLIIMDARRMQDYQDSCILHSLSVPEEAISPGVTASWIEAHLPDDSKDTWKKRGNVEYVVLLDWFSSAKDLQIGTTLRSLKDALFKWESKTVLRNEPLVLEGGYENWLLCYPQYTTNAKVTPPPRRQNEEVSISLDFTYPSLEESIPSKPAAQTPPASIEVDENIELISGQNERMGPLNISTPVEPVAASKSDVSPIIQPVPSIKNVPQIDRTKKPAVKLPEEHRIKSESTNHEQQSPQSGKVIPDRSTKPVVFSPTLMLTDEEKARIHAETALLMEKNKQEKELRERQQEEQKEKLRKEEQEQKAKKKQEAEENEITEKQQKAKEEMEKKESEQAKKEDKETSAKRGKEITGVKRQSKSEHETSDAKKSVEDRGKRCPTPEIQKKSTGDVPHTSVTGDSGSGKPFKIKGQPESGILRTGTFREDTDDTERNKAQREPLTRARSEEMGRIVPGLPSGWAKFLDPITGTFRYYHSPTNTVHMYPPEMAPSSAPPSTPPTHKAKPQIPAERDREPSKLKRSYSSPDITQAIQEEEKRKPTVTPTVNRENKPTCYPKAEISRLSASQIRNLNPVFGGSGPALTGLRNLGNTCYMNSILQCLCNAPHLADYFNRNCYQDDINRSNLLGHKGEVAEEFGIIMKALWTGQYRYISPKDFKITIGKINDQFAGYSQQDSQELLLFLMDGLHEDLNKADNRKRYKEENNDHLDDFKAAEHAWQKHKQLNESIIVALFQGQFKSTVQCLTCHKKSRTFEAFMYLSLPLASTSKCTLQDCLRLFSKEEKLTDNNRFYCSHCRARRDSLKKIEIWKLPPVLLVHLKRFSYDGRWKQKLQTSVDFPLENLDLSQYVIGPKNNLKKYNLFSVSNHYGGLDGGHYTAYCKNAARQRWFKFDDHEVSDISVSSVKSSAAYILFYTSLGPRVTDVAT
Description: The cDNA encoding USP8 was obtained by PCR amplification from placenta mRNA. USP8 cDNA was subcloned by PCR into a baculovirus expression vector (pFastBac-HT; Invitrogen). A cDNA encoding a mutated USP8 was generated by mutagenic PCR. The corresponding protein encodes a cysteine to alanine substitution at residue 786. The sequences were ascertained by sequencing of the entire open reading frame. Bacmids encoding […] were generated following. DH10bac transposition. The corresponding bacmids were transfected into insect cells (Sf9). Viruses were recovered from culture supernatant and amplified twice. Insect cells (Sf9 or High Five; Invitrogen) were infected for 72 hours. Total cell lysates were harvested and lyzed in lysis buffer (Tris HCl 50 mM pH7.6; 0.75% NP40; 500 mM NaCl; 10% glycerol; 1 mM DTT; 10 mM imidazole; Protease Inhibitor Cocktail; AEBSF 20 μg.ml^−1; Aprotinin 10 μg.ml^−1). Proteins were affinity purified on metal affinity resins (Talon Metal affinity resin; BD Biosciences). Bound materials were extensively washed in wash buffer (50 mM Sodium Phosphate pH 7.0; 300 mM NaCl; 10 mM imidazole; 0.5% Triton X-100; 10% glycerol) and eluted from the resin in 250 mM imidazole-containing wash buffer. Proteins were dialyzed in dialysis buffer (Tris HCl pH 7.6 20 mM; NaCl 200 mM; DTT 1 mM; EDTA 1 mM; 10% Glycerol). Proteins purifications were analyzed on 4-12% NuPAGE (Invitrogen).
USP8 was diluted in USP buffer (50 mM Tris HCl; 0.5 mM EDTA; 5 mM DTT; 0.01% Triton X-100; Bovine Serum Albumin 0.05 mg.ml^−1 pH8.8). Compounds stocks (100 mM) were stored at −20° C. in DMSO.
Reactions were performed as duplicates in Black LJL 96 well plates (HE microplates; Molecular Devices; 20 μl final reaction volume). The substrate concentration for USP8 was 400 nM Ub-AMC (Boston Biochem). The concentrations of the enzyme (USP8) in specificity assays was 630 pM. The concentrations were determined in order to perform specificity assays under initial velocities at fixed substrate concentration. Compounds were pre-incubated with enzymes for 30 minutes at 25° C. Reactions were initiated by addition of substrate to the plates containing the enzymes (+/−compounds) diluted in assay buffer. Reactions were incubated for 60 minutes at 37° C. Reactions were stopped by adding acetic acid (100 mM final). Readings were performed on a Pherastar Fluorescent Reader (BMG). λ Emission 380 nm; λ Excitation=460 nm. Data (mean values +/−standard deviation) were analyzed as % of control (no compound) and plotted as percentage versus the Log of the compound concentration using GraphPad (Prism). Data were fitted to a sigmoidal model (variable slope).

[2] = target: T2, Uch-L3 (Homo sapiens, UniProt P15374); test: UCH-L3 activity assay (Ub-AMC); type: biochemical; conditions: 400 nM Ub-AMC, 13 pM enzyme, 30 min pre-incubation, 60 min at 37° C., sigmoidal fit; read-out: Uch-L3 (inhibition of cysteine protease activity)
T2 sequence (P15374 1-230): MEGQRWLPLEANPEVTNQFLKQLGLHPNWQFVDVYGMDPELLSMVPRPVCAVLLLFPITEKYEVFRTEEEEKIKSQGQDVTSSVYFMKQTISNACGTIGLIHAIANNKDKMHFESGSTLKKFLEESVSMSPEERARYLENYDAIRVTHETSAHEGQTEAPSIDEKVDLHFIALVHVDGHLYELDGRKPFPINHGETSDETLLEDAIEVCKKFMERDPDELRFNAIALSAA
Procedure: Uch-L3 was diluted in USP buffer (50 mM Tris HCl; 0.5 mM EDTA; 5 mM DTT; 0.01% Triton X-100; Bovine Serum Albumin 0.05 mg.ml^−1 pH7.6). Compounds stocks (100 mM) were stored at −20° C. in DMSO. Compounds were tested at the following final concentrations: 100 μM; 33.3 μM; 11.1 μM; 3.7 μM; 1.23 μM; 412 nM; 137 nM; 45.7 nM, 15.2 nM; 5 nM.
Reactions were performed as duplicates in Black LJL 96 well plates (HE microplates; Molecular Devices; 20 μl final reaction volume). The substrate concentration for Uch-L3 was 400 nM Ub-AMC (Boston Biochem). The concentration of the enzyme (Uch-L3) in specificity assays was 13 pM. The concentrations were determined in order to perform specificity assays under initial velocities at fixed substrate concentration. Compounds were pre-incubated with enzymes for 30 minutes at 25° C. Reactions were initiated by addition of substrate to the plates containing the enzymes (+/−compounds) diluted in assay buffer.
Reactions were incubated for 60 minutes at 37° C. Reactions were stopped by adding acetic acid (100 mM final). Readings were performed on a Pherastar Fluorescent Reader (BMG). δ Emission 380 nm; 6 Excitation=460 nm. Data (mean values +/−standard deviation) were analyzed as % of control (no compound) and plotted as percentage versus the Log of the compound concentration using GraphPad (Prism). Data were fitted to a sigmoidal model (variable slope).

IC50 [1] | IC50 [2] | Compound
47.7 µM | 51 µM | C=CCON=C1c2ccccc2-c2nc3nnc(C)n3nc21 (mixture of isomers) [5c, 1-Methyl-2,3,4,10,10a-pentaaza-cyclopenta[b]fluoren-9-one O-allyl-oxime]
35 µM | 89 µM | C=CCON=C1c2ccccc2-c2nc3nnc(CCCC)n3nc21 (mixture of isomers) [5e, 1-Butyl-2,3,4,110,10a-pentaaza-cyclopenta[b]fluoren-9-one O-allyl-oxime]
